Each compound was assayed against T1, human TLR8 (Homo sapiens, UniProt Q9NR97) (assay: HEK293-Blue-hTLR-8 cells assay). Conditions: HEK293-Blue-hTLR8 cells, R848 stimulation, 20 hrs, SEAP reporter; read-out: HEK/hTLR8 IC50.
T1 sequence (Q9NR97 27-1041): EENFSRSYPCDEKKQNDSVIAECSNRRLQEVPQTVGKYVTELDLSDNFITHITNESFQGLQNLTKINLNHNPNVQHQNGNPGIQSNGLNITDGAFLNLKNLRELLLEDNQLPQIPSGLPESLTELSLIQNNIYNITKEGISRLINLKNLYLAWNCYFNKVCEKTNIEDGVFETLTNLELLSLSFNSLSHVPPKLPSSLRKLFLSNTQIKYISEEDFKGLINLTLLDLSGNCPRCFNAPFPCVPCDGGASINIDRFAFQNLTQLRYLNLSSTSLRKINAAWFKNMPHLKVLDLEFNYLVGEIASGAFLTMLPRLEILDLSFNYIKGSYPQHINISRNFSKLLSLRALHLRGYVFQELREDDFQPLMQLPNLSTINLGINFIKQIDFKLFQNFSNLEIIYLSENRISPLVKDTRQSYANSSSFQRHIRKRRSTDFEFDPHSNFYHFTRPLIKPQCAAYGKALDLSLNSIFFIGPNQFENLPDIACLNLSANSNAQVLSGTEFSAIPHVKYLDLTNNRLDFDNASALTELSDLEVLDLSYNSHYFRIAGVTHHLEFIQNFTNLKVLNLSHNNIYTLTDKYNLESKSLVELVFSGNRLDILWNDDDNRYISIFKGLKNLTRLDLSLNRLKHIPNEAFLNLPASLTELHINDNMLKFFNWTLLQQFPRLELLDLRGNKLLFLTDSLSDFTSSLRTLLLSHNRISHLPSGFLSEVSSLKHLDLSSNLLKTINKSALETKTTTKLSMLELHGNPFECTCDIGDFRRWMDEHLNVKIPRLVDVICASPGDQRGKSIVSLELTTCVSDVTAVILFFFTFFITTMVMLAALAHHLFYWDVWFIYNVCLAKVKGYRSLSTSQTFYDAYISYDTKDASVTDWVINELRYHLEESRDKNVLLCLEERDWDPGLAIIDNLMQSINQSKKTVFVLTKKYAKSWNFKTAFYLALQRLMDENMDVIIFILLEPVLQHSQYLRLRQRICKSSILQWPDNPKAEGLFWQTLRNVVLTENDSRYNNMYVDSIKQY
Type: cell-based
Description: HEK293-Blue-hTLR-8 Cells Assay:
A stable HEK293-Blue-hTLR-8 cell line was purchased from InvivoGen (Cat. #: hkb-htlr8, San Diego, California, USA). These cells were originally designed for studying the stimulation of human TLR8 by monitoring the activation of NF-κB. A SEAP (secreted embryonic alkaline phosphatase) reporter gene was placed under the control of the IFN-β minimal promoter fused to five NF-κB and AP-1-binding sites. The SEAP was induced by activating NF-κB and AP-1 via stimulating HEK-Blue hTLR8 cells with TLR8 ligands. Therefore the reporter expression was declined by TLR8 antagonist under the stimulation of a ligand, such as R848, for incubation of 20 hrs. The cell culture supernatant SEAP reporter activity was determined using QUANTI-Blue™kit (Cat. #: rep-qb1, Invivogen, San Diego, Ca, USA) at a wavelength of 640 nm, a detection medium that turns purple or blue in the presence of alkaline phosphatase.
HEK293-Blue-hTLR8 cells were incubated at a density of 250,000-450,000 cells/mL in a volume of 170 μL in a 96-well plate in Dulbecco's Modified Eagle's medium (DMEM) containing 4.5 g/L glucose, 50 U/mL penicillin, […], […], 2 mM L-glutamine, 10% (v/v) heat-inactivated fetal bovine serum with addition of 20 μL test compound 1n a serial dilution in the presence of final DMSO at 1% and 10 μL of 60 uM R848 in above DMEM, perform incubation under 37° C. in a CO2 incubator for 20 hrs. Then 20 μL of the supernatant from each well was incubated with 180 μL Quanti-blue substrate solution at 37° C. for 2 hrs and the absorbance was read at 620-655 nm using a spectrophotometer. The signaling pathway that TLR8 activation leads to downstream NF-κB activation has been widely accepted, and therefore similar reporter assay was modified for evaluating TLR8 antagonist.

IC50, < 3.2 nM:
CO[C@@H]1CN(c2ccc3c(c2)CN2C3CN(c3ccc(C#N)c4ncccc34)C[C@H]2C)C[C@@H]1N (relative stereo) [Example 17, 5-[(4R,10bS)-8-[cis-3-amino-4-methoxy-pyrrolidin-1-yl]-4-methyl-3,4,6,10b-tetrahydro-1H-pyrazino[2,1-a]isoindol-2-yl]quinoline-8-carbonitrile]
CO[C@H]1CN(c2ccc3c(c2)CN2C3CN(c3ccc(C#N)c4ncccc34)C[C@H]2C)C[C@@H]1N (single isomer, unassigned) [Example 16A]
COC1CN(c2ccc3c(c2)CN2C3CN(c3ccc(C#N)c4ncccc34)C[C@H]2C)CC1N (single isomer, unassigned) [Example 16B]
N#Cc1ccc(N2CCN3Cc4cc(N5CCNCC5)ccc4C3C2)c2scnc12 (stereo not shown) [Example 4, 7-(8-piperazin-1-yl-3,4,6,10b-tetrahydro-1H-pyrazino[2,1-a]isoindol-2-yl)-1,3-benzothiazole-4-carbonitrile]
C[C@@H]1CN(c2ccc(C#N)n3nccc23)C[C@@H]2c3ccc(N4CCNCC4)cc3CN12 [Example 5, 4-[(4R,10bS)-4-methyl-8-piperazin-1-yl-3,4,6,10b-tetrahydro-1H-pyrazino[2,1-a]isoindol-2-yl]pyrazolo[1,5-a]pyridine-7-carbonitrile]
C[C@@H]1CN(c2ccc(C#N)c3ncsc23)C[C@@H]2c3ccc(N4CCNCC4)cc3CN12 [Example 6, 7-[(4R,10bS)-4-methyl-8-piperazin-1-yl-3,4,6,10b-tetrahydro-1H-pyrazino[2,1-a]isoindol-2-yl]-1,3-benzothiazole-4-carbonitrile]
C[C@@H]1CN(c2ccc(C#N)c3nccnc23)C[C@@H]2c3ccc(N4CCNCC4)cc3CN12 [Example 7, 8-[(4R,10bS)-4-methyl-8-piperazin-1-yl-3,4,6,10b-tetrahydro-1H-pyrazino[2,1-a]isoindol-2-yl]quinoxaline-5-carbonitrile]
C[C@@H]1CN(c2ccc(C#N)c3ncccc23)C[C@@H]2c3cccc(N4CCNCC4)c3CN12 [Example 8, 5-[(4R,10bS)-4-methyl-7-piperazin-1-yl-3,4,6,10b-tetrahydro-1H-pyrazino[2,1-a]isoindol-2-yl]quinoline-8-carbonitrile]
C[C@@H]1CN(c2ccc(C#N)c3ncccc23)C[C@@H]2c3ccc(C4CCNCC4)cc3CN12 [Example 9, 5-[(4R,10bS)-4-methyl-8-(4-piperidyl)-3,4,6,10b-tetrahydro-1H-pyrazino[2,1-a]isoindol-2-yl]quinoline-8-carbonitrile]
C[C@@H]1CN(c2ccc(C#N)c3ncccc23)C[C@@H]2c3ccc(N4CCNC[C@@H]4CO)cc3CN12 [Example 10, 5-[(4R,10bS)-8-[(2R)-2-(hydroxymethyl)piperazin-1-yl]-4-methyl-3,4,6,10b-tetrahydro-1H-pyrazino[2,1-a]isoindol-2-yl]quinoline-8-carbonitrile]
C[C@@H]1CN(c2ccc(C#N)c3ncccc23)C[C@@H]2c3ccc(N4CCNC[C@H]4CO)cc3CN12 [Example 11, 5-[(4R,10S)-8-[(2S)-2-(hydroxymethyl)piperazin-1-yl]-4-methyl-3,4,6,10b-tetrahydro-1H-pyrazino[2,1-a]isoindol-2-yl]quinoline-8-carbonitrile]
C[C@@H]1CN(c2ccc(C#N)c3ncccc23)C[C@@H]2c3ccc(N4CC(N)C5(COC5)C4)cc3CN12 (stereo partly drawn) [Example 18, 5-[(4R,10bS)-8-(5-amino-2-oxa-7-azaspiro[3.4]octan-7-yl)-4-methyl-3,4,6,10b-tetrahydro-1H-pyrazino[2,1-a]isoindol-2-yl]quinoline-8-carbonitrile]
C[C@@H]1CN(c2ccc(C#N)c3ncccc23)C[C@@H]2c3ccc(N4CCC(N)(CO)C4)cc3CN12 (stereo partly drawn) [Example 19, 5-[(4R,10bS)-8-[3-amino-3-(hydroxymethyl)pyrrolidin-1-yl]-4-methyl-3,4,6,10b-tetrahydro-1H-pyrazino[2,1-a]isoindol-2-yl]quinoline-8-carbonitrile]
C[C@@H]1CN(c2ccc(C#N)c3ncccc23)C[C@@H]2c3ccc(N4CC[C@@H](N)C4)cc3CN12 [Example 20, 5-[(4R,10bS)-8-[(3R)-3-aminopyrrolidin-1-yl]-4-methyl-3,4,6,10b-tetrahydro-1H-pyrazino[2,1-a]isoindol-2-yl]quinoline-8-carbonitrile]
CN[C@H]1CN(c2ccc3c(c2)CN2[C@H](C)CN(c4ccc(C#N)c5ncccc45)C[C@H]32)C[C@@H]1OC [Example 23, 5-[(4R,10bS)-8-[(3S,4S)-3-methoxy-4-(methylamino)pyrrolidin-1-yl]-4-methyl-3,4,6,10b-tetrahydro-1H-pyrazino[2,1-a]isoindol-2-yl]quinoline-8-carbonitrile]
C[C@@H]1CN(c2ccc(C#N)c3ncccc23)C[C@@H]2c3ccc(N4CCOC5(CNC5)C4)cc3CN12 [Example 24, 5-[(4R,10bS)-4-methyl-8-(5-oxa-2,8-diazaspiro[3.5]nonan-8-yl)-3,4,6,10b-tetrahydro-1H-pyrazino[2,1-a]isoindol-2-yl]quinoline-8-carbonitrile]
C[C@@H]1CN(c2ccc(C#N)c3ncccc23)C[C@@H]2c3ccc(OCCN(C)C)cc3CN12 [Example 25, 5-[(4R,10bS)-8-[2-(dimethylamino)ethoxy]-4-methyl-3,4,6,10b-tetrahydro-1H-pyrazino[2,1-a]isoindol-2-yl]quinoline-8-carbonitrile]
C[C@@H]1CN(c2ccc(C#N)c3ncccc23)C[C@@H]2c3ccc(C4CNC4)cc3CN12 [Example 29, 5-[(4R,10bS)-8-(azetidin-3-yl)-4-methyl-3,4,6,10b-tetrahydro-1H-pyrazino[2,1-a]isoindol-2-yl]quinoline-8-carbonitrile]
C[C@@H]1CN(c2ccc(C#N)c3ncccc23)C[C@@H]2c3ccc(N[C@H]4CNC[C@H]4F)cc3CN12 [Example 30, 5-[(4R,10bS)-8-[[(3S,4R)-4-fluoropyrrolidin-3-yl]amino]-4-methyl-3,4,6,10b-tetrahydro-1H-pyrazino[2,1-a]isoindol-2-yl]quinoline-8-carbonitrile]
C[C@@H]1CN(c2ccc(C#N)c3ncccc23)C[C@@H]2c3ccc(N[C@H]4CNC[C@@H]4F)cc3CN12 [Example 31, 5-[(4R,10bS)-8-[[(3S,4S)-4-fluoropyrrolidin-3-yl]amino]-4-methyl-3,4,6,10b-tetrahydro-1H-pyrazino[2,1-a]isoindol-2-yl]quinoline-8-carbonitrile]
C[C@@H]1CN(c2ccc(C#N)c3ncccc23)C[C@@H]2c3ccc(N[C@@H]4CNC[C@@H]4F)cc3CN12 [Example 32, 5-[(4R,10bS)-8-[[(3R,4S)-4-fluoropyrrolidin-3-yl]amino]-4-methyl-3,4,6,10b-tetrahydro-1H-pyrazino[2,1-a]isoindol-2-yl]quinoline-8-carbonitrile]
C[C@@H]1CN(c2ccc(C#N)c3ncccc23)C[C@@H]2c3ccc(N[C@@H]4CNC[C@H]4F)cc3CN12 [Example 33, 5-[(4R,10bS)-8-[[(3R,4R)-4-fluoropyrrolidin-3-yl]amino]-4-methyl-3,4,6,10b-tetrahydro-1H-pyrazino[2,1-a]isoindol-2-yl]quinoline-8-carbonitrile]
